Biological target: hERG potassium channel (Homo sapiens, UniProt Q12809)
Test: radio-ligand competitive binding assay

hERG potassium channel, sequence (Q12809 whole entry): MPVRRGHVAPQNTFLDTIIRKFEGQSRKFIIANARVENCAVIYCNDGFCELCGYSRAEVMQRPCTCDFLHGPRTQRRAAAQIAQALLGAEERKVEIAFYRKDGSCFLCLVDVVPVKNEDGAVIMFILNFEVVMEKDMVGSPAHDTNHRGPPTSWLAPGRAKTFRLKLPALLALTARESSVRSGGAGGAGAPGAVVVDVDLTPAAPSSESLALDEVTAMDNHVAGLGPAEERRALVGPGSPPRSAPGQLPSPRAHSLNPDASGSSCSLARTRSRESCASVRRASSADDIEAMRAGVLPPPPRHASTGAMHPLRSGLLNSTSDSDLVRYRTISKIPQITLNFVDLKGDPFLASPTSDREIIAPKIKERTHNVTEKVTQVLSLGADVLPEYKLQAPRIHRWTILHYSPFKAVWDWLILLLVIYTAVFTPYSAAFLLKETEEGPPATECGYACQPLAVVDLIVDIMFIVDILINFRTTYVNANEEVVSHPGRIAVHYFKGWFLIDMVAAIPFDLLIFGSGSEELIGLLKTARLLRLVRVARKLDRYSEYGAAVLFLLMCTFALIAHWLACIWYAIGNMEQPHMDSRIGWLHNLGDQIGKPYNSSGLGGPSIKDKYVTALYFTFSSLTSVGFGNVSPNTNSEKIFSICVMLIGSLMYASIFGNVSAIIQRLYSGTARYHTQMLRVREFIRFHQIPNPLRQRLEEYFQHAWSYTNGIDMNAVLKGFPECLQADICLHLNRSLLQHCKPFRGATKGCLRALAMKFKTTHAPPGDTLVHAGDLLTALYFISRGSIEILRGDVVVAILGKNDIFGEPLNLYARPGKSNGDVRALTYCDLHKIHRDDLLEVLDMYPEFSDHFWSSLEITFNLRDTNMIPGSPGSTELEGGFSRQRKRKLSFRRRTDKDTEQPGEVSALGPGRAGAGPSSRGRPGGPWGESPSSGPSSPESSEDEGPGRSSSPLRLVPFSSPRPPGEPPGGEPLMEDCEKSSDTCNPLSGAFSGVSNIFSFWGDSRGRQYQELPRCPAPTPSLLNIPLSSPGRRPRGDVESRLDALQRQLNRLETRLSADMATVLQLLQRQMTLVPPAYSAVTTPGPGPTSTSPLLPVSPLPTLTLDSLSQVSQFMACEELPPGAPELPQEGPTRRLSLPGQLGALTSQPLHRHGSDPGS

`CN1CCN(CCCCN2C(=O)CN(/N=C/c3ccc(-c4ccc(Cl)cc4)o3)C2=O)CC1` [Azimilide] showed an IC50 of 1.91 µM and a Ki of 0.954 µM.

From PMC4658274 (The Analyst, 2015)
